Reference: PMC8307404, “Crystal Structure-Guided Design of Bisubstrate Inhibitors and Photoluminescent Probes for Protein Kinases of the PIM Family” (Molecules, 2021)
Read-outs that look alike come from different tables or passages of the source. One block for each compound: values may come before it. Square brackets hold non-standard residues; d marks the D form. Peptide text beside a SMILES is read from it. * marks the point of attachment. X3 = O=C(CCCCCNCc1nc2c(sc3cc(Br)cnc32)c(=O)[nH]1)*

Key:
MAPKAP-K3 = MAPKAP-K3 (Homo sapiens, UniProt Q16644); experiment: Kinase profiling (radiometric filter-binding); assay type: biochemical; conditions: MAPKAP-K3, 1 µM inhibitor; read-out: Residual activity, %
Sequence of MAPKAP-K3 (Q16644 whole entry): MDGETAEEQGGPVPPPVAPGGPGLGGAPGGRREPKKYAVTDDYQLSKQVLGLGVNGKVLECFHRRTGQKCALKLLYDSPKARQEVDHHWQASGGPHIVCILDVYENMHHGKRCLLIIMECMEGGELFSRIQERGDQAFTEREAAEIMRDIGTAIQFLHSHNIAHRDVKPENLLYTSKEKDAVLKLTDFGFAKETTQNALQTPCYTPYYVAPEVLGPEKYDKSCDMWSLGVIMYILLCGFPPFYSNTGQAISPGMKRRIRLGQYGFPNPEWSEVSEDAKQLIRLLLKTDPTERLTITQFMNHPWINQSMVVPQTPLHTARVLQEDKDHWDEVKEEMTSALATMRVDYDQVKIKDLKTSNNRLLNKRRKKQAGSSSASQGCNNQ
Description: (§1) Kinase selectivity profiling was performed using the commercial service provided by the MRC PPU International Centre for Kinase Profiling (Dundee, UK) using a radiometric filter-binding assay. Kinases used for analysis were of human origin. The ATP concentration applied for inhibition measurements was at or below the ATP KM value of the particular PK. ARC-3125 and ARC-3126 were screened against 139 PKs, whereas compounds 1, 2, and 8 were screened against 140 PKs. The final total concentration of inhibitors in the selectivity panel was 1 µM. Residual activities were expressed as the percentage of retained activity compared to the control without inhibitor.

CHK1 = biological target: T1, CHK1 (Homo sapiens, UniProt O14757); experiment: Kinase profiling (radiometric filter-binding); assay type: biochemical; conditions: CHK1, 1 µM inhibitor; read-out: Residual activity, %
T1 sequence (O14757 1-476): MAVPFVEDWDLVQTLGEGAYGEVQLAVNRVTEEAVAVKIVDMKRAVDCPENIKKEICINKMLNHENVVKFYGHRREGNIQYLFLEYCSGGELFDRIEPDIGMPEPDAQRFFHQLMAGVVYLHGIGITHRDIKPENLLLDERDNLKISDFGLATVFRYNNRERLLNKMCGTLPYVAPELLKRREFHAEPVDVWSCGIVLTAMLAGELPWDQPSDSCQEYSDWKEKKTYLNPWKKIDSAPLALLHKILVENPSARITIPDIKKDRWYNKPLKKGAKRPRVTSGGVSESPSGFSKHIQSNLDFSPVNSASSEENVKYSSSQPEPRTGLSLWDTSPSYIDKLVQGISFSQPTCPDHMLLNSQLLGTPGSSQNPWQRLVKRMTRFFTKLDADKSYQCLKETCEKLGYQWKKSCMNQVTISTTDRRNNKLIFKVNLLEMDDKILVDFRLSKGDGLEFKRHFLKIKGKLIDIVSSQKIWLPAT
Description: as §1

PKC = biological target: T2, PKC (Homo sapiens, UniProt Q05513); experiment: Kinase profiling (radiometric filter-binding); assay type: biochemical; conditions: second of two PKC lines (Greek letter lost), 1 µM inhibitor, read-out: Residual activity, %
T2 sequence (Q05513 1-592): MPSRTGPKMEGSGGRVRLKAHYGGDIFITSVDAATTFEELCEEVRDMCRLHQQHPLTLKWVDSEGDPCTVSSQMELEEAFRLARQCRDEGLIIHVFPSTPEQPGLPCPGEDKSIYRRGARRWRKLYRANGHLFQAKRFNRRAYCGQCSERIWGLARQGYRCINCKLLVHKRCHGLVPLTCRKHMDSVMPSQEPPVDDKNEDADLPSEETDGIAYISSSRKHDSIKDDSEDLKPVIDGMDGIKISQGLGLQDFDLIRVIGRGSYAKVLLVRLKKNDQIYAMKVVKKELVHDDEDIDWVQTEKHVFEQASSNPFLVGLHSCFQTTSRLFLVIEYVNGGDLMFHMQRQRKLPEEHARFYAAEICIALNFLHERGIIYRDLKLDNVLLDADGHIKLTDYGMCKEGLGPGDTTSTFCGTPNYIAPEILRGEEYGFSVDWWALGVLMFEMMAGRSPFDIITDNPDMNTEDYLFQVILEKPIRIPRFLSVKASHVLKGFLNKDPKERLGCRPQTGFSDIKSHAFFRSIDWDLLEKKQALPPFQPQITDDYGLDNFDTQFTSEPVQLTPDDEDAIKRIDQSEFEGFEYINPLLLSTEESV
Description: as §1

PIM1 = PIM1 (Homo sapiens, UniProt P11309); experiment: Binding/displacement assay with FA or TGLI readout; parameters: made in house; conditions: KD, nM (PIM-1), TGLI or FA readout; mean ± SEM, N = 2
Sequence of PIM1 (P11309 whole entry): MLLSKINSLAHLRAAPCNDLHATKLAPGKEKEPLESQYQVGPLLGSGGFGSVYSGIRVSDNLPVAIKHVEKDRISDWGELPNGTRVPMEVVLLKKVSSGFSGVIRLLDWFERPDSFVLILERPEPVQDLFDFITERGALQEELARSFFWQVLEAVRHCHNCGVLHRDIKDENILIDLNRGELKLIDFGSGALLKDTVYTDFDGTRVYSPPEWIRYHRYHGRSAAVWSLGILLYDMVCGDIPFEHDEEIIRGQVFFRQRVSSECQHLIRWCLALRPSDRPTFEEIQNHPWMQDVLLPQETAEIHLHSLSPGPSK
Description: (§2) The affinities of the compounds toward the PIM family PKs were determined in a binding/displacement assay with measurement of fluorescence anisotropy (FA) and time-gated luminescence intensity (TGLI) (Table 2). For the initial assessment of the selectivity of compounds, PKAcα was used as the reference basophilic kinase [10].
(§3) Optical FA measurement modules for 5-TAMRA-labeled compounds (ex. 540(20) nm, em. 590(20) nm and 590(20) nm), for Cy5-labeled compounds (ex. 590(50) nm, em. 675(50) nm and 675(50) nm), and optical TGLI measurement modules for ARC-1451 (ex. 330(60) nm, em. 590(50) nm), for ARC-1188 (ex. 330(60) nm, em. 675(50) nm) were used for assays with PHERAstar microplate reader (BMG Labtech; Ortenberg, Germany). TGLI measurements were performed with a delay time of 50 μs and integration of the signal for 150 μs. In each measurement, emission from 200 flashes of excitation radiation was collected. The measurement solutions (20 µL volumes) were prepared in black 384-well low-binding surface microtiter plates (Corning #4514; Kennebunk, ME, USA) and incubated for 20 min at 30 °C before the measurements. The assay buffer contained HEPES hemisodium salt (pH 7.4, 50 mM), NaCl (150 mM), dithiothreitol (5 mM), bovine serum albumin (0.5 mg/mL), and Tween-20 (0.005%). […] 5.04 (GraphPad Software, Inc.) was used for data analysis with FA [32] or TGLI [33] readouts.

PKAcα = biological target: T3, PKAcα (Homo sapiens, UniProt P17612); experiment: Binding/displacement assay with FA or TGLI readout
T3 construct: purchased Biaffin GmbH & Co KG (Kassel, Germany)
Description: The affinities of the compounds toward the PIM family PKs were determined in a binding/displacement assay with measurement of fluorescence anisotropy (FA) and time-gated luminescence intensity (TGLI) (Table 2). For the initial assessment of the selectivity of compounds, PKAcα was used as the reference basophilic kinase.
Optical FA measurement modules for 5-TAMRA-labeled compounds (ex. 540(20) nm, em. 590(20) nm and 590(20) nm), for Cy5-labeled compounds (ex. 590(50) nm, em. 675(50) nm and 675(50) nm), and optical TGLI measurement modules for ARC-1451 (ex. 330(60) nm, em. 590(50) nm), for ARC-1188 (ex. 330(60) nm, em. 675(50) nm) were used for assays with PHERAstar microplate reader (BMG Labtech; Ortenberg, Germany). TGLI measurements were performed with a delay time of 50 μs and integration of the signal for 150 μs. In each measurement, emission from 200 flashes of excitation radiation was collected. The measurement solutions (20 µL volumes) were prepared in black 384-well low-binding surface microtiter plates (Corning #4514; Kennebunk, ME, USA) and incubated for 20 min at 30 °C before the measurements. The assay buffer contained HEPES hemisodium salt (pH 7.4, 50 mM), NaCl (150 mM), dithiothreitol (5 mM), bovine serum albumin (0.5 mg/mL), and Tween-20 (0.005%). GraphPad Prism v. 5.04 (GraphPad Software, Inc.) was used for data analysis with FA [32] or TGLI [33] readouts. Representative titration curves can be found in Supplementary Figure S7.

PIM2 = PIM2 (Homo sapiens, UniProt Q9P1W9); experiment: Binding/displacement assay with FA or TGLI readout; parameters: made in house; conditions: mean ± SEM, N = 2
Sequence of PIM2 (Q9P1W9 whole entry): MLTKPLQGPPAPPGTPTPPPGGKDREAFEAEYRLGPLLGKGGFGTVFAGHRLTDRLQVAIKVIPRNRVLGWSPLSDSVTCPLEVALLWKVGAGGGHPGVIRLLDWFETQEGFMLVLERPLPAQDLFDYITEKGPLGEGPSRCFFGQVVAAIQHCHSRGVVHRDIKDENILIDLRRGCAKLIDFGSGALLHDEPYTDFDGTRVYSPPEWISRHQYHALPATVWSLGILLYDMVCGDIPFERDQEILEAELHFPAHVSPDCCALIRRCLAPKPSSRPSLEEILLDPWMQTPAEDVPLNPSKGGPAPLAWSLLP
Description: as §2, §3

PIM3 = PIM3 (Homo sapiens, UniProt Q86V86); experiment: Binding/displacement assay with FA or TGLI readout; parameters: made in house; conditions: mean ± SEM, N = 2
Description: as §2, §3

[1] = TGLI or FA readout, mean ± SEM, N = 2, read-out: KD, nM (PKAcα)

SMILES: N=C(N)NCCC[C@@H](NC(=O)CCCCCNC(=O)Cn1cnc2c(I)c(I)c(I)c(I)c21)C(=O)N[C@H](CCCNC(=N)N)C(=O)N[C@H](CCCNC(=N)N)C(=O)N[C@H](CCCNC(=N)N)C(=O)N[C@H](CCCNC(=N)N)C(=O)N[C@H](CCCNC(=N)N)C(=O)N[C@H](CCCCN)C(N)=O [ARC-3125, TIBI-CH2-C(=O)-Ahx-(D-Arg)6-D-Lys-NH2]
remaining activity at 1 µM (MAPKAP-K3): 48 ± 1%
remaining activity at 1 µM (CHK1): 76 ± 1%
remaining activity at 1 µM (PKC): 14 ± 1%

SMILES: N=C(N)NCCC[C@@H](NC(=O)CCCCCNCc1nc2c(sc3cc(Br)cnc32)c(=O)[nH]1)C(=O)N[C@H](CCCNC(=N)N)C(=O)N[C@H](CCCNC(=N)N)C(=O)N[C@H](CCCNC(=N)N)C(=O)N[C@H](CCCNC(=N)N)C(=O)N[C@H](CCCNC(=N)N)C(=O)N[C@H](CCCCN)C(N)=O [ARC-3126, BPTP-Ahx-(D-Arg)6-D-Lys-NH2] (X3-[dR][dR][dR][dR][dR][dR][dK]-NH2)
Kd (PIM1): 1.8 ± 0.7 nM
remaining activity at 1 µM (MAPKAP-K3): 43 ± 7%
remaining activity at 1 µM (CHK1): 100 ± 6%
remaining activity at 1 µM (PKC): 92 ± 4%
Kd (PKAcα; [1]): > 18500 nM
Kd (PKAcα; read-out: KD toward PKAcα): > 18000 nM
Kd (PIM2): 2.9 ± 0.5 nM
Kd (PIM3): 2 ± 0.5 nM

SMILES: N=C(N)NCCC[C@@H](NC(=O)CNC(=O)[C@@H](CCCNC(=N)N)NC(=O)[C@@H](CCCNC(=N)N)NC(=O)CCCCCCCNCc1nc2c(sc3cc(Br)cnc32)c(=O)[nH]1)C(=O)N[C@H](CCCCN)C(N)=O [Compound 1, BPTP-Aoc-(D-Arg)2-Gly-D-Arg-D-Lys-NH2]
Kd (PIM1): 11.4 ± 1 nM
remaining activity at 1 µM (MAPKAP-K3): 111 ± 6%
remaining activity at 1 µM (CHK1): 122 ± 17%
remaining activity at 1 µM (PKC): 95 ± 6%
Kd (PKAcα; [1]): 2250 ± 411 nM
Kd (PIM2): 64 ± 8 nM
Kd (PIM3): 5.2 ± 1 nM

SMILES: N=C(N)NCCC[C@@H](NC(=O)CNC(=O)[C@@H](CCCNC(=N)N)NC(=O)[C@@H](CCCNC(=N)N)NC(=O)CCCCCCCNCc1nc2c(sc3ccc(Br)cc32)c(=O)[nH]1)C(=O)N[C@H](CCCCN)C(N)=O [Compound 2, BBTP-Aoc-(D-Arg)2-Gly-D-Arg-D-Lys-NH2]
Kd (PIM1): 0.4 ± 0.1 nM
remaining activity at 1 µM (MAPKAP-K3): 110 ± 11%
remaining activity at 1 µM (CHK1): 112 ± 6%
remaining activity at 1 µM (PKC): 118 ± 11%
Kd (PKAcα; [1]): 853 ± 28 nM
Kd (PIM2): 3.8 ± 0.2 nM
Kd (PIM3): 2 ± 0.4 nM

SMILES: N=C(N)NCCC[C@@H](NC(=O)CNC(=O)[C@@H](CCCNC(=N)N)NC(=O)[C@@H](CCCNC(=N)N)NC(=O)Cn1cc(CNCc2nc3c(sc4ccc(Br)cc43)c(=O)[nH]2)nn1)C(=O)N[C@H](CCCCN)C(N)=O [Compound 3, BBTP-Amt-(D-Arg)2-Gly-D-Arg-D-Lys-NH2]
Kd (PIM1): 0.7 ± 0.2 nM
remaining activity at 1 µM (MAPKAP-K3): 85 ± 5%
remaining activity at 1 µM (CHK1): 104 ± 2%
remaining activity at 1 µM (PKC): 89 ± 2%
Kd (PKAcα; [1]): 1500 ± 266 nM
Kd (PIM2): 9.9 ± 0.8 nM
Kd (PIM3): 7 ± 1 nM

Kd (PIM1): 20.5 ± 4 nM
Kd (PKAcα; [1]): > 1020 nM
Kd (PIM2): 157 ± 39 nM
Kd (PIM3): 15.7 ± 3 nM
SMILES: CN(C)c1ccc2c(c1)Oc1cc(N(C)C)ccc1C21OC(=O)c2cc(C(=O)NCCCC[C@@H](NC(=O)[C@@H](CCCNC(=N)N)NC(=O)CNC(=O)[C@@H](CCCNC(=N)N)NC(=O)[C@@H](CCCNC(=N)N)NC(=O)CCCCc3cn(Cc4nc5c(sc6ccc(Br)cc65)c(=O)[nH]4)nn3)C(N)=O)ccc21 [Compound 8, BBTP-Tap-(D-Arg)2-Gly-D-Arg-[D-Lys(5-TAMRA)]-NH2]
